Counter-ions that a name gives are not always drawn.
Experiments:
[1] = test system: ROS generation in photoreceptors of Abca4−/−Rdh8−/− mice; assay: In vivo detection of ROS (DHE probe) in retinas of light-exposed Abca4−/−Rdh8−/− mice; design: species or system mouse; details: Example 3; DOX 10 mg/kg, GUB 2.0 mg/kg, SQ 0.5 mg/kg ip 30 min prior to light
Description: The ROS probe, DHE, at a dose of 20 mg/kg body weight was administered to Abca4^−/−Rdh8^−/− mice via intraperitoneal injection 30 min prior to light exposure. Eye cups obtained after removing the cornea, lens and vitreous body from enucleated eye globes 3 h post light illumination were fixed in 4% paraformaldehyde. Cryosections were prepared from fixed eye cups and cut at 12 am thickness for microscopic assessment of ROS signal fluorescence in the retina.
The ROS probe, DHE, at a dose of 20 mg/kg body weight in 25 μl of DMSO, was administered to Abca4^−/−Rdh8^−/− mice via intraperitoneal injection 1 h prior to light exposure. Eye cups obtained after removing the cornea, lens, and vitreous body from enucleated eye globes 3 h post light illumination were fixed in 4% paraformaldehyde. Cryosections were prepared from fixed eye cups and cut at 12-am thickness for microscopic assessment of ROS fluorescence in the retina with ImageJ software (National Institutes of Health).

Abca4−/−Rdh8−/− mice = assay: Bright light-induced retinal degeneration in Abca4−/−Rdh8−/− mice, SLO autofluorescence imaging; assay type: in vivo, mouse; details: pretreatment before light 10,000 lux 30 min; SLO 8-9 days after light exposure
Description: SLO (Heidelberg Engineering, Heidelberg, Germany) was carried out for whole fundus imaging of mouse retinas. Mice were anesthetized by intraperitoneal injection of anesthetic cocktail indicated above, which was followed by pupil dilation using 1% tropicamide prior to SLO imaging under autofluorescence mode.
(§1) SLO (Heidelberg Engineering) was carried out for in vivo whole fundus imaging of mouse retinas. […] Numbers of autofluorescent spots were counted and subjected to statistical analyses as described below.
SLO (Heidelberg Engineering) was carried out for whole fundus imaging of mouse retinas in vivo. Mice were anesthetized, and their pupils were dilated as described above. SLO images were then acquired in the autofluorescence mode.

BALB/c mice [2] = assay: Light-induced retinal degeneration in BALB/c mice, retinal morphology (OCT, histology, IHC); assay type: in vivo, mouse; details: for retinal morphology / ONL (OCT, histology): ip pretreatment 30 min before 10,000 lux, 7 days after light
BALB/c mice [3] = assay: Light-induced retinal degeneration in BALB/c mice, SLO autofluorescence imaging; assay type: in vivo, mouse; details: DOX 10, GUB 2.0, SQ 0.5 mg/kg, 7 days after light
Description: as §1
These drugs were administered to 4-week-old BALB/c mice by intraperitoneal injection 30 min prior to white light exposure at 10,000 lux for 1 h. Retinal morphology was assessed 7 days after light exposure by OCT imaging and histological examination.

[4] = biological target: T1, Dopamine D1 receptor (D1R) (Homo sapiens, UniProt P21728); assay: BRET assay for G protein activation in live cells, D1R-Gs; assay type: cell-based; details: for antagonistic activity on D1R (inhibition of BRET signal): preincubation with ligand, then 1 μM dopamine
T1 construct: host or cells: HEK293T/17
T1 sequence (P21728 whole entry): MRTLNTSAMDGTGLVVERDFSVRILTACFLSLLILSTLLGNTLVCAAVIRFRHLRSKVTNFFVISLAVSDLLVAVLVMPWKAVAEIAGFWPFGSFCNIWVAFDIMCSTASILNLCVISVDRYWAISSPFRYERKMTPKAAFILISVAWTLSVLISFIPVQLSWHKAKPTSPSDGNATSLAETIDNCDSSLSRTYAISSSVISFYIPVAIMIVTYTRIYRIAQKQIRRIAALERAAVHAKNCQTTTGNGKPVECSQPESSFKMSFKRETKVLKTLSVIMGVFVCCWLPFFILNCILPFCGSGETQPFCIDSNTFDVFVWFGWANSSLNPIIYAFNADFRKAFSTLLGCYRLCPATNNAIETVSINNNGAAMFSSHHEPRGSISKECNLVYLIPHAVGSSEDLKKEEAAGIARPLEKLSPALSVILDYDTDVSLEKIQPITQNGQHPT
Description: (§2) FIGS. 35(A-C) illustrate characterizing the activity of BRM, MTP, DOX, and TAM on dopamine and adrenaline receptors (A) Schematic representation of the BRET assay used to evaluate actions of drugs on selected GPCRs. […] The free Venus-Gβγ then interacts with the Gβγ-effector mimetic masGRK3ct-Nluc to produce the BRET signal. GDP, guanosine diphosphate; GRK, G protein-coupled receptor kinase; Nluc, nanoluciferase. (B) Left: Representative BRET signal traces recorded upon activation of D4R with indicated drugs in cells expressing Gαo and Venus-Gβγ, illustrating the agonism assay. Right: Representative traces of D2R responses to 1 μM dopamine in the absence (control) or presence of indicated drugs, illustrating antagonism assay. Note that, in the antagonism assay shown, the black trace overlaps with the red trace and therefore is not visible. (C) Top: Quantification of agonistic activity of ligands on D2R, D4R, D1R, and ADRA1A. D2R-GO, D4R-GO, D1R-Gs, and ADRA1A-Gq signaling were reconstituted in HEK293T/17 cells by transient transfection separately. Maximum amplitudes induced by dopamine (DA; 100 μM), noradrenaline (NA; 100 μM), BRM (25 μM), MTP (100 μM), DOX (50 μM), and TAM (100 μM) were plotted as bar graphs. […] The activity is plotted as percent inhibition. Data are means±SD. Results are representative of two independent experiments each performed with 12 replicates.
(§3) Dopamine D1, dopamine D4, and α1A-adrenergic receptors were purchased from cDNA Resource Center (Bloomsburg University, Bloomsburg, Pa.). Plasmid encoding the Flag-tagged, long isoform of the D2 dopamine receptor was a gift from A. Kovoor (University of Rhode Island). pCMV5 plasmids encoding GαoA were gifts from H. Itoh (Nara Institute of Science and Technology, Japan). Plasmids encoding Venus 156-239-Gβ1 and Venus 1-155-Gγ2 were gifts from N. Lambert (Georgia Regents University). Plasmids encoding RGS9-2, Gβ5S, R7BP, and masGRK3ct-Nluc were previously described.
(§4) BRET experiments were performed as previously reported with slight modifications. […] BRET measurements were performed using a microplate reader (POLARstar Omega, BMG Labtech) equipped with two emission photomultiplier tubes. […] The BRET signal is determined by calculating the ratio of the light emitted by Gβ1γ2-Venus (535 nm) over the light emitted by masGRK3ct-Nluc (475 nm). The average baseline value recorded before agonist stimulation was subtracted from BRET signal values, and the resulting difference (ABRET ratio) was obtained.
(§5) We used a real-time kinetic assay in which G protein activation by GPCRs is quantified by monitoring changes in the bioluminescence resonance energy transfer (BRET) signal between Venus-tagged Gβγ and its luciferase-tagged reporter in living cells (FIG. 35A). […]

[5] = biological target: T2, α1A-adrenergic receptor (ADRA1A) (Homo sapiens, UniProt P35348); assay: BRET assay for G protein activation in live cells, ADRA1A-Gq; assay type: cell-based; details: for antagonistic activity on ADRA1A (inhibition of BRET signal): preincubation with ligand, then 1 μM noradrenaline
T2 construct: host or cells: HEK293T/17
T2 sequence (P35348 1-466): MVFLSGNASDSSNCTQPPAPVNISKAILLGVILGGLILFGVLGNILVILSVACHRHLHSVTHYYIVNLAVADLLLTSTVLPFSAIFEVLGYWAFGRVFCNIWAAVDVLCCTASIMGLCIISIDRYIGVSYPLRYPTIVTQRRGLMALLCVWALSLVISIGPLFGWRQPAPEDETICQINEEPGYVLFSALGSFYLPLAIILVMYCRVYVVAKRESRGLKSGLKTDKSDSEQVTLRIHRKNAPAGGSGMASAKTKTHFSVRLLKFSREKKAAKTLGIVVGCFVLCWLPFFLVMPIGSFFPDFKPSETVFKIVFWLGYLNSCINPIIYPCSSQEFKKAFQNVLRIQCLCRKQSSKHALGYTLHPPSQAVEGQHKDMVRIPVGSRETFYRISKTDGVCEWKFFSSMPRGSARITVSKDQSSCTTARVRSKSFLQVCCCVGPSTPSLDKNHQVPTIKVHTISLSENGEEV
Description: as §2, §3, §4, §5

[6] = biological target: T3, D2 dopamine receptor (D2R) (Homo sapiens, UniProt P14416); assay: BRET assay for G protein activation in live cells, D2R-Go; assay type: cell-based; details: for antagonistic activity on D2R (inhibition of BRET signal): preincubation with ligand, then 1 μM dopamine
T3 construct: Flag; host or cells: HEK293T/17
T3 sequence (P14416 whole entry): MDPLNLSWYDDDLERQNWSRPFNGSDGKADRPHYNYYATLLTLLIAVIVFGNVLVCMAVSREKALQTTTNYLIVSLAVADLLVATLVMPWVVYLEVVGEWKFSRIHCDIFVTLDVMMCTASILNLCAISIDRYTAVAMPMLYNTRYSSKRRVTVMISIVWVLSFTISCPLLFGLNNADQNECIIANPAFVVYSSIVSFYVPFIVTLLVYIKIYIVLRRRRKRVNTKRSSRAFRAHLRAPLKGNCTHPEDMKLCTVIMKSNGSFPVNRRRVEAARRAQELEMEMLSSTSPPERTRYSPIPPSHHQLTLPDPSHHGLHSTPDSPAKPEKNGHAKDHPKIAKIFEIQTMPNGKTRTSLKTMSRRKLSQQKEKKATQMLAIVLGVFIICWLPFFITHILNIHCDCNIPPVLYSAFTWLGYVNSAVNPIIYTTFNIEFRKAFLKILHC
Description: as §2, with “Results are representative of two independent experiments each performed with 12 replicates.” left out
as §4, §5

[7] = HEK293T/17 cells, BRM 25 μM, MTP 100 μM, DOX 50 μM, TAM 100 μM

Structure (SMILES) | ROS generation in photoreceptors (DHE signal) [1] | retinal autofluorescence spots by SLO imaging (Abca4−/−Rdh8−/− mice) | retinal morphology / ONL (OCT, histology) (BALB/c mice [2]) | autofluorescent spots by SLO (BALB/c mice [3]) | antagonistic activity on D1R (inhibition of BRET signal) [4] | antagonistic activity on ADRA1A (inhibition of BRET signal) [5] | PNA staining of cone photoreceptors (BALB/c mice [2]; BRM 2.5 mg/kg bw, MTP 10 mg/kg bw) | agonistic activity on D2R (BRET signal) [6, 7] | antagonistic activity on D2R (inhibition of BRET signal) [6] | agonistic activity on D1R (BRET signal) [4, 7] | agonistic activity on ADRA1A (BRET signal) [5, 7]
COc1cc2nc(N3CCN(C(=O)C4COc5ccccc5O4)CC3)nc(N)c2cc1OC.CS(=O)(=O)O (stereo not shown) [Doxazosin] | decreased | significantly protected retinas from developing light-induced damage | retinal morphology of drug-treated mice was maintained | prevented | partial antagonistic effect | full antagonist |  |  |  |  | 
COCCc1ccc(OCC(O)CNC(C)C)cc1 (stereo not shown) [MTP, metoprolol tartrate] |  | lacked these autofluorescent spots | preserved the ONL |  | no agonistic or antagonistic effects | no agonistic or antagonistic effects | nearly normal pattern of PNA staining | no agonistic or antagonistic effects | no agonistic or antagonistic effects | no agonistic or antagonistic effects | no agonistic or antagonistic effects
CCOc1ccccc1OCCN[C@H](C)Cc1ccc(OC)c(S(N)(=O)=O)c1.Cl [Tamsulosin] |  | significantly protected retinas from developing light-induced damage |  |  | partial antagonist | antagonistic activity |  |  | antagonistic activity |  | 
